The source made the active and inactive calls.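 The calls were made as follows: active = compounds raising the signal whose fitted half-maximal concentration is at or below their top tested dose (cut at about 25 µM in these data); inconclusive = flat fit at 30 to 70% activity, or a poor fit; inactive = the rest.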

In this assay the test system is INS-1E rat beta cells, no cytokines, CellTiter-Glo ATP, 48 h. As to the kind of experiment: cytokine-free beta-cell viability effect – INS-1E rat cells, ATP luminescence, cherry pick, counter-screen for beta-cell apoptosis protection project, dose response (AID 463229). A general note: The purpose of a counterscreen is to sort out artefacts and off-target activity.
In general, AC50 refers to the concentration at which the activity in the assay is half-maximal. As for `COc1ccc(/C=N/Nc2cc(C)nc3ccc(Br)cc23)cc1`, the AC50 is 7.02 µM.

Take `COc1ccc(-n2c(=S)[nH]c3cc(C(=O)Nc4ccccc4OC)ccc3c2=O)cc1`: the AC50 is 8.24 µM. For `Oc1ccc2ccccc2c1/C=N/Nc1nnc(-c2ncc[nH]2)c2ccccc12`, the AC50 was 3.39 µM. Take `CCc1ccc(-c2cc(C(F)(F)F)n3nc(C(=O)Nc4cnn(Cc5ccc(C)cc5)c4)cc3n2)s1`: the concentration at half-maximal activity (AC50) was 7.83 µM. In the case of `CC(C)(C)c1ccc(-n2ncc3c2CCCC3NC(=O)C2(C(N)=O)CC2)cc1` (centres undefined), the AC50 is 6.85 µM. Regarding `COc1ccc(NCc2nnc(SCC(=O)Nc3nc(-c4ccccc4)cs3)n2-c2ccccc2)cc1`, the AC50 was 7 µM. Under `CC(C)CC[n+]1ccn(C2=C([O-])c3ccccc3C(=O)/C2=N\S(=O)(=O)c2ccccc2)c1` stands 22.9 µM; under `C/C(=N\NC(=O)c1ccccc1Cl)c1ccccn1`, 5.98 µM; under `Cc1sc2ncnc(NCC3COc4ccccc4O3)c2c1C` (centres undefined), 2.34 µM.

In the case of `O=C(/C=C/c1cccc(Cl)c1)c1ccc([N+](=O)[O-])o1`, the concentration at half-maximal activity (AC50) is 3.68 µM. With `COc1ccc(CNC(=O)c2c(C)oc3c2C(=O)c2ccccc2C3=O)cc1` the figure was 7.42 µM; with `C#CCOCCOCCOCCNc1nc(N2CCN(C(=O)CCCCCCCCCCNC(=O)[C@H](CCCCN)n3cc(C)nn3)CC2)nc(N2CCN(C(=O)CCCCCCCCCCNC(=O)[C@@H]([C@H](C)CC)n3cc(CCCCCN)nn3)CC2)n1`, 6.78 µM. As to `CCCCC(=O)NC(c1ccccc1)c1ccc2cccnc2c1O` (centres undefined), the AC50 was 2.24 µM. Under `Brc1ccc(CN2CCN(Cc3c[nH]c4ccccc34)CC2)cc1` stands 6.91 µM; under `c1ccc2c(c1)ncn2CCCCOc1ccc2c(c1)CCC2`, 7.37 µM; under `O=C(CNC(=O)c1ccccc1)N/N=C/c1cc(Br)ccc1O`, 15.2 µM. Under `O=C(NC1(Cc2ccccc2)CCN(CCCc2ccccc2)C1=O)c1ccccc1` (centres undefined) stands 4.71 µM; under `Cc1ccc(C(=O)Nc2nc(-c3ccccn3)cs2)s1`, 6.66 µM; under `CCc1ccc2[nH]c(=O)c(C3C(C#N)=C(N)Oc4c3ccc3cccnc43)cc2c1` (centres undefined), 5.4 µM. Regarding `C/C(=N/NC(=O)CN(c1ccccc1)S(=O)(=O)c1ccccc1)c1ccccc1O`, the AC50 was 10.2 µM. Regarding `CC(=O)NC(c1cccc([N+](=O)[O-])c1)c1ccc2cccnc2c1O` (centres undefined), the half-maximal activity concentration (AC50) was 2.58 µM. `O=c1cc(CSc2ccc(Cl)cc2)nc(-c2ccccn2)[nH]1`: the AC50 is 11.6 µM. Consider `O=C(N/N=C/c1c(O)ccc2ccccc12)c1ccc(Br)o1`, for which the AC50 was 4.83 µM. With `CC(=O)NC(c1ccc(C(C)C)cc1)c1ccc2cccnc2c1O` (centres undefined) the figure was 1.98 µM; with `Cc1cccnc1CN1CCN(C(=O)c2cc(COc3ccc4ncccc4c3)on2)CC1`, 5.44 µM. Consider `COc1ccc(-c2cn(-c3ccc(Cl)cc3)c3[n+]2CCCCC3)cc1`, for which the AC50 was 2 µM. With `O=C(Cc1cccs1)N/N=C\c1ccc([N+](=O)[O-])s1`, the AC50 is 7.04 µM. On to `CCCC(=O)NC(c1ccc(Cl)cc1)c1ccc2cccnc2c1O` (centres undefined), for which the AC50 is 2.08 µM. For the compound `N=c1c2c(n(Cc3ccc(Cl)cc3Cl)c3c1CCC3)CCCC2`, the AC50 was 3.99 µM. Turning to `Cc1ccccc1OCC(O)CNC1CCC(NCC(O)COc2ccccc2C)CC1` (centres undefined), the AC50 is 6.66 µM. With `Cc1nc2c3cc(F)ccc3n(Cc3ccccc3)c2s1` the figure was > 26 µM (inactive); with `O=C(N/N=C/c1cccc(F)c1)c1c(O)c2ccccc2[nH]c1=O`, 4.35 µM; with `Cc1cccc(Oc2cc(NC(=O)c3ccccc3)cc([N+](=O)[O-])c2)c1`, 7.84 µM. Under `Cc1nc(C)c(C(=O)N/N=C/c2cc(Br)ccc2O)s1` stands 7.57 µM; under `CCN(CC)S(=O)(=O)c1ccc(Cl)c(C(=O)Nc2ccc(Cl)cc2[N+](=O)[O-])c1`, 7.97 µM. For `Cc1cccc(Cn2nnc3c2C(=O)c2ccccc2C3=O)c1`, the AC50 is 10.5 µM. With `CCC[N+]1(CC#CCC(c2ccccc2)c2ccccc2)CCCCC1` the figure was 2.03 µM; with `O=[N+]([O-])c1ccc(-c2nc(C(Cl)Cl)c3ccccc3n2)cc1`, 1.66 µM.

`N=c1c2c(ncn1CCCO)Oc1ccc3ccccc3c1C2c1ccccc1` (centres undefined): the AC50 is > 26 µM (inactive). For the compound `CC(C)(C)c1cc(C(=O)N/N=C/c2ccc([N+](=O)[O-])s2)n[nH]1`, the AC50 is 6.84 µM. For `COc1ccc(C(=O)/C(C#N)=N/Nc2ccc([N+](=O)[O-])cc2)cc1`, the AC50 is 2.15 µM. On to `Cc1cc(C(C)(C)C)cc(C)c1Cn1c2[n+](c3ccc(C(F)(F)F)cc31)CCCCC2`, for which the AC50 was 4.19 µM.

Take `C[C@H]1CCC/C=C/C2C[C@H](O)CC2[C@H](O)/C=C/C(=O)O1` (some centres undefined): the AC50 was 0.94 µM.

Consider `CCN(CC)CCC(=O)Nc1cccc2c1C(=O)c1ccccc1C2=O`, for which the concentration at half-maximal activity (AC50) is 12 µM. Consider `COc1cccc(Cn2c(NCc3ccco3)nc3c2c(=O)n(C)c(=O)n3C)c1`, for which the AC50 was 6.42 µM.

In the case of `CC(C)Cn1c(SCC(=O)N2CCc3ccccc3C2)nc2cc(Cl)ccc2c1=O`, the AC50 was 6.5 µM.

With `FC(F)(F)c1ccccc1NC(=S)N1CCN(Cc2ccc3c(c2)OCO3)CC1`, the AC50 was 7.35 µM. With `Cc1cccc(OCc2n(CC(=O)OC3CC(C)CCC3C(C)C)c3ccccc3[n+]2C)c1` (centres undefined) the figure was 4.12 µM; with `O=C(NCc1cccnc1)c1ccc(NC(=O)c2ccc(Br)cc2)cc1`, below 0.195 µM. For `O=S1(=O)C=C(Sc2nnc(-c3ccccc3)o2)c2ccccc21`, the AC50 is 7.96 µM.

In the case of `COc1cccc(/C=N/Nc2snc(SC)c2C#N)c1O`, the AC50 is 5.12 µM. For the compound `CCN(CC)c1ccc(/C=N/NC(=O)CNC(=O)C2COc3ccccc3O2)c(O)c1` (centres undefined), the AC50 is 5.41 µM. With `CCOc1ccccc1NC(=O)c1nc(S(=O)(=O)Cc2cccc(C)c2)ncc1Cl` the figure was 7.91 µM; with `Cc1cccc(/C=N\NC(=O)c2ccc(Cl)cc2)c1O`, 4.8 µM; with `CCCCCCCC[n+]1cccc2c3ccccc3ccc21`, 0.273 µM. Under `Cn1nccc1C(=O)NC1CCCc2c1cnn2-c1ccccc1F` (centres undefined) stands 3.16 µM; under `CCOC(=O)c1cnc(-n2nc(C)cc2C)nc1NC(C)c1ccccc1` (centres undefined), 13.7 µM. For `COc1ccccc1C(CCNCc1ccc(N(C)C)cc1)c1ccc(OC(C)C)cc1` (centres undefined), the AC50 is 9.78 µM.

Turning to `COCCCNC(=O)Cn1nnc(-c2ccc(NC(=O)c3cccnc3)cc2)n1`, the AC50 is 5.3 µM. Under `Cn1nc(CC(=O)Nc2ccc3c(c2)OCCO3)c2ccccc2c1=O` stands 5.63 µM.

Take `O=C(CCSc1nc2ccccc2s1)N/N=C/c1c(O)ccc2ccccc12`: the AC50 is 5.5 µM. With `O=C(N/N=C(\c1ccccc1)c1ccccn1)c1ccccc1Cl` the figure was 6.14 µM; with `Cc1ccc(C)c(N2CCN(C(=O)CCCOc3cc(=O)n(C)c4ccccc34)CC2)c1`, 2.7 µM. As to `COC(=O)c1ccc2[nH]c3cccc(/C(=C/c4ccccc4)c4ccccc4)c3c2c1`, the AC50 was 15.7 µM. As for `CN1/C(=C\C(=S)Nc2ccccc2)C(C)(C)c2ccccc21`, the AC50 is 10.1 µM.

On to `O=S1(=O)C=C(Sc2nc3ccccc3s2)c2ccccc21`, for which the AC50 is 5.35 µM. In the case of `O=C(Nc1nc(-c2ccccn2)cs1)Nc1ccc(F)cc1F`, the AC50 was 10.2 µM.

As for `CCN(CC)Cc1c(O)ccc2c1O/C(=C\C=C\c1ccccc1)C2=O`, the AC50 is 14.4 µM. For `COc1ccccc1CNCC(O)Cn1c2ccccc2c2ccccc21` (centres undefined), the concentration at half-maximal activity (AC50) was 12.9 µM. For `COc1ccc(C(=O)N(C)c2ccccc2C(=O)NCCc2ccccc2)cc1`, the AC50 is 7.85 µM.

As to `Cc1ccc2[nH]cc(/C=C/c3cc[n+](C)cc3)c2c1`, the AC50 is 5.46 µM. Under `O=C(Nc1ccc(-c2csc(Nc3cccc(C(F)(F)F)c3)n2)cc1)c1cc([N+](=O)[O-])cc(C(F)(F)F)c1` stands 7.63 µM.

As to `COc1ccc(Cl)c(Cn2c(NCc3ccco3)nc3c2c(=O)n(C)c(=O)n3C)c1`, the AC50 was 13.1 µM. For `Cc1cccc(/C=C/C(=O)c2ccc([N+](=O)[O-])o2)c1`, the AC50 is 4.26 µM. Under `COc1ccc2[nH]c3c(C)c4ccncc4c(C)c3c2c1` stands 4.13 µM; under `CCOC(=O)c1cnc(-n2nc(C)cc2C)nc1NNc1cc(C)nc(-c2ccccc2)n1`, 7.19 µM. `COc1ccc(Cn2cc3c(-c4ccc(F)cc4)nnc-3c3cc(OC)c(OC)cc32)cc1`: the AC50 is 9.02 µM. Under `Cc1ccc(S(=O)(=O)N2CCOCC2)cc1C(=O)Nc1nc(-c2ccccn2)cs1` stands 7.77 µM.

As to `FC(F)(F)c1nnc(-c2ccccc2)nc1Sc1ccc(Cl)cc1`, the AC50 was 12.6 µM. Take `Cc1ccc(NS(=O)(=O)c2ccc(Cl)c(NC(=S)NC(=O)C3CCCCC3)c2)cc1Cl`: the concentration at half-maximal activity (AC50) was 14 µM. `O=C(c1cc2sccc2n1Cc1ccccc1)N1CCN(c2nc3ccccc3s2)CC1`: the AC50 was 5.51 µM. Take `Cc1ccc(C(C)C)c(OCC(O)CN2CCc3ccccc3C2)c1` (centres undefined): the AC50 is 9.7 µM. As to `O=C(O)c1ccc(S(=O)(=O)/N=C2\C=C(Nc3ccccc3F)C(=O)c3ccccc32)cc1`, the AC50 is 7.91 µM. Under `CCn1c(=O)c([N+](=O)[O-])c(Cl)c2ccccc21` stands 7.4 µM; under `COc1ccccc1C(=O)Nc1nc2ccccc2[nH]1`, 1.22 µM.

Regarding `CCC[C@@H](CN1CCC[C@H]1CN1C(N)=NC[C@@H]1Cc1ccccc1)N1C[C@@H]([C@H](C)CC)N(CCCC2CCCC2)C1=N`, the AC50 was 7.72 µM. In the case of `COc1ccc(-n2c(-c3ccc(Cl)cc3)c[n+]3c2CCc2ccccc2-3)cc1`, the concentration at half-maximal activity (AC50) was 1.78 µM.

As to `CCOC(=O)C(C(C)=O)c1c(Br)c(O)c(O)c2c(C(=O)c3ccc(C)cc3)coc12` (centres undefined), the AC50 was 2.9 µM. Under `Cc1ccc(-c2cc(-c3ccc(C)cc3)[n+](-c3ccc(C(=O)[O-])cc3)c(-c3ccc(C)cc3)c2)cc1` stands 7.24 µM; under `O=S(=O)(c1ccc(F)c(F)c1F)N1CCN(c2ncnc3sccc23)CC1`, 7.17 µM. With `COc1ccc(C2c3ccc4ccccc4c3Oc3ncn(CCCN(C)C)c(=N)c32)cc1` (centres undefined), the AC50 is 8.02 µM.

In the case of `CC(C)(C)c1cnnn1-c1ccc(/C=N/Nc2ccc([N+](=O)[O-])cc2)cc1`, the AC50 is 7.77 µM. `c1ccc(-[n+]2nc(Nc3cccc4ccccc34)sc2-c2c3ccccc3cc3ccccc23)cc1`: the AC50 is 3.86 µM. In the case of `CCN(CC)CCn1nc2c3c(cccc3c1=O)-c1ccccc1-2`, the AC50 was 6.74 µM.
